Assay results taken from patent US20170023576A1, “NOTCH3 ANTIBODIES AND USES THEREOF” (ONCOMED PHARMACEUTICALS, INC., priority 2014, published 2017).

Assays:
[1] = tested on: OMP-PN08 pancreatic tumor; experiment: Pancreatic tumor xenograft growth in vivo, OMP-PN08; parameters: species or system human; conditions: OMP-PN8 tumors in NOD/SCID mice; antibody 40 mg/kg every other week, gemcitabine 20 mg/kg weekly
Description: (§1) Ten primary patient-derived pancreatic tumor xenografts were tested for efficacy in response to anti-Notch2/3 antibody OMP-59R5 in combination with gemcitabine. These tumors were OMP-PN04, OMP-PN07, OMP-PN08, OMP-PN11, OMP-PN13, OMP-PN16, OMP-PN17, OMP-PN21, OMP-PN23, and OMP-PN25.
In one representative example, OMP-PN8 pancreatic tumor cells (2×10^4) were injected into NOD/SCID mice. Tumors were allowed to grow for 22 days until they reached an average volume of 125 mm^3. Tumor-bearing mice were randomized into 4 groups and treated with control antibody, anti-NOTCH2/3 antibody OMP-59R5, gemcitabine, or a combination of OMP-59R5 and gemcitabine. Antibodies were dosed every other week at 40 mg/kg. Gemcitabine was dosed weekly at 20 mg/kg. Tumor growth was monitored and tumor volumes were measured with electronic calipers on the indicated days post-treatment.

[2] = tested on: OMP-PN11 pancreatic tumor; experiment: Pancreatic tumor xenograft growth in vivo, OMP-PN11; parameters: species or system human; conditions: OMP-PN11 tumors in NOD/SCID mice; antibody 40 mg/kg every other week, gemcitabine 20 mg/kg weekly
Description: as §1
In a second representative example, OMP-PN11 pancreatic tumor cells (5×10^4) were injected into NOD/SCID mice. Tumors were allowed to grow for 21 days until they reached an average volume of 120 mm^3. Tumor-bearing mice were randomized into 4 groups and treated with control antibody, OMP-59R5, gemcitabine, or a combination of OMP-59R5 and gemcitabine. Antibodies were dosed every other week at 40 mg/kg. Gemcitabine was dosed weekly at 20 mg/kg. […] Tumor growth was monitored and tumor volumes were measured with electronic calipers on the indicated days post-treatment.

With “OMP-59R5: anti-NOTCH2/3 therapeutic antibody; heavy chain variable region SEQ ID NO:18, light chain variable region SEQ ID NO:26” the “tumor growth (FIG. 1A)” value [1] was “significantly inhibited tumor growth” and the “tumor growth (FIG. 1B)” value [2] was “no effect”.
